The values below come from patent US11576922B2, “CD73 inhibitors” (ORIC Pharmaceuticals, Inc., priority 2017, dated 2023).

Bounds are passed on as bounds.

The target of one assay is T1, CD73 (Homo sapiens, UniProt P21589).
T1 sequence (P21589 27-549): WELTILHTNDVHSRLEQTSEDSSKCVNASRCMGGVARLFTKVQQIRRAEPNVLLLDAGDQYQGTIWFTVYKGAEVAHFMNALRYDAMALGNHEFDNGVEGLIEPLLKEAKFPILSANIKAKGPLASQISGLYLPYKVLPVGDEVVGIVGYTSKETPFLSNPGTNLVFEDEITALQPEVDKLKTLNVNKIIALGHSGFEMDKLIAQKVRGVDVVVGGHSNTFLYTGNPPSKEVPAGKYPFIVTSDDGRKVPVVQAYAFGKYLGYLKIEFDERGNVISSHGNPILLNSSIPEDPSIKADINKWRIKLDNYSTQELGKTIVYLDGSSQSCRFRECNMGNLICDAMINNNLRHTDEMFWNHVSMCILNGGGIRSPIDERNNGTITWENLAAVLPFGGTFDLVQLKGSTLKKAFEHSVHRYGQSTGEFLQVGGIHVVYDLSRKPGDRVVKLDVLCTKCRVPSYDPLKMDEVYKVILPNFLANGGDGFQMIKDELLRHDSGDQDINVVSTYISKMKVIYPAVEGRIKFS
The experiment in a line: Example A1: Biochemical Assay (CD73 inhibition, Malachite Green detection of AMP hydrolysis). The following applies: Biochemical IC50, CD73 0.3208 nM, AMP 15 μM, Tris-HCl pH 7.4, Malachite Green, absorbance 620 nm. The method, then: Example A1: Biochemical Assay
Assay Reaction Conditions
• Assay Volume: 70 μl • Reaction Volume: 50 μl • CD73: 0.3208 nM • AMP: 15 μM • Assay Buffer: 2 5 mM Tris-HCL, pH 7.4, 0.01% Brij-35, 0.01% BSA, 5 mM MgCl2 Assay Procedure:
Made dose titration of testing compounds in assay buffer, 10 points ½ log titrations in duplicates starting at 100 μM.
Added 25 μl of CD73 to each well for a final concentration of […].
Incubated at RT for 15 min.
Added 25 μl of AMP to each well for a final concentration of 15 μM.
Incubated at RT for 10 min.
Added 10 μl of Malachite Green Reagent A, incubate at RT for 10 min.
Added 10 μl of Malachite Green Reagent B, incubate at RT for 45 min.
Read the Absorbance on Envision plate reader using excitation filter: Cy5 […].
The ability of the compounds disclosed herein to inhibit CD73 activity was quantified and the respective IC50 values were determined. Table 1 provides the biochemical IC50 values of compounds disclosed herein.
Compound `O=P(O)(O)C[P@](=O)(OC[C@H]1O[C@@H](n2nnc3c(NCc4ccccc4Cl)nc(Cl)nc32)[C@H](O)[C@@H]1O)Oc1ccccc1` [Example 32, (((S)-(((2R,3S,4R,5R)-5-(5-chloro-7-((2-chlorobenzyl)amino)-3H-[1,2,3]triazolo[4,5-d]pyrimidin-3-yl)-3,4-dihydroxytetrahydrofuran-2-yl)methoxy)(phenoxy)phosphoryl)methyl) phosphonic acid] came in with a half-inhibitory concentration (IC50) greater than 1000 nM.

Staying with this assay, now noted: CD73 0.3208 nM, AMP 15 μM, Tris-HCl pH 7.4, Malachite Green, absorbance 620 nm; read-out: Biochemical IC50.
Regarding `CO[P@@](=O)(CP(=O)(O)O)OC[C@H]1O[C@@H](n2nnc3c(NCc4ccccc4Cl)nc(Cl)nc32)[C@H](O)[C@@H]1O` [Example 28, (((S)-(((2R,3S,4R,5R)-5-(5-chloro-7-((2-chlorobenzyl)amino)-3H-[1,2,3]triazolo[4,5-d]pyrimidin-3-yl)-3,4-dihydroxytetrahydrofuran-2-yl)methoxy)(methoxy)phosphoryl)methyl)phosphonic acid], the half-inhibitory concentration (IC50) fell in the range of 100 to 1000 nM.
Consider `O=P(O)(O)CP(=O)(O)OC[C@H]1O[C@@H](n2nnc3c(N4CCC[C@H]4c4ccccc4)nc(Cl)nc32)[C@H](O)[C@@H]1O` [Example 11, (((((2R,3S,4R,5R)-5-(5-chloro-7-((S)-2-phenylpyrrolidin-1-yl)-3H-[1,2,3]triazolo[4,5-d]pyrimidin-3-yl)-3,4-dihydroxytetrahydrofuran-2-yl)methoxy)(hydroxy)phosphoryl)methyl) phosphonic acid], for which the IC50 fell in the range of 100 to 1000 nM.
Take `O=P(O)(O)CP(=O)(OCc1ccccc1)OC[C@H]1O[C@@H](n2nnc3c(NCc4ccccc4Cl)nc(Cl)nc32)[C@H](O)[C@@H]1O` (stereo partly drawn) [Example 29, (((benzyloxy)(((2R,3S,4R,5R)-5-(5-chloro-7-((2-chlorobenzyl)amino)-3H-[1,2,3]triazolo[4,5-d]pyrimidin-3-yl)-3,4-dihydroxytetrahydrofuran-2-yl)methoxy)phosphoryl)methyl)phosphonic acid]: the IC50 was less than 100 nM.
For the compound `O=P(O)(O)CP(=O)(O)OC[C@H]1O[C@@H](n2nnc3c(NCc4cccc(Cl)c4)nc(Cl)nc32)[C@H](O)[C@@H]1O` [Example 14, (((((2R,3S,4R,5R)-5-(5-chloro-7-((3-chlorobenzyl)amino)-3H-[1,2,3]triazolo[4,5-d]pyrimidin-3-yl)-3,4-dihydroxytetrahydrofuran-2-yl)methoxy)(hydroxy)phosphoryl)methyl) phosphonic acid], the half-maximal inhibitory concentration (IC50) is less than 100 nM.
On the same count and under the same terms, with `C[C@@H](c1ccccc1)N(C)c1nc(Cl)nc2c1nnn2[C@@H]1O[C@H](COP(=O)(O)CP(=O)(O)O)[C@@H](O)[C@H]1O` [Example 13, (((((2R,3S,4R,5R)-5-(5-chloro-7-(methyl((S)-1-phenylethyl)amino)-3H-[1,2,3]triazolo[4,5-d]pyrimidin-3-yl)-3,4-dihydroxytetrahydrofuran-2-yl)methoxy)(hydroxy)phosphoryl)methyl) phosphonic acid] the figure was less than 100 nM.
The same measure, in the same setting: with `O=P(O)(O)CP(=O)(O)OC[C@@H]1C[C@@H](O)[C@H](n2nnc3c(NCc4ccccc4Cl)nc(Cl)nc32)O1` [Example 23, (((((2S,4R,5R)-5-(5-chloro-7-((2-chlorobenzyl)amino)-3H-[1,2,3]triazolo[4,5-d]pyrimidin-3-yl)-4-hydroxytetrahydrofuran-2-yl)methoxy)(hydroxy)phosphoryl)methyl)phosphonic acid] the figure was less than 100 nM; with `Cc1nn([C@@H]2O[C@H](COP(=O)(O)CP(=O)(O)O)[C@@H](O)[C@H]2O)c2nc(Cl)nc(N(C)Cc3ccccc3)c12` [Example 43, (((((2R,3S,4R,5R)-5-(4-(benzyl(methyl)amino)-6-chloro-3-methyl-1H-pyrazolo[3,4-d]pyrimidin-1-yl)-3,4-dihydroxytetrahydrofuran-2-yl)methoxy)(hydroxy)phosphoryl)methyl) phosphonic acid], less than 100 nM.
`CN(c1nc(Cl)nc2c1nnn2[C@@H]1O[C@H](COP(=O)(O)CP(=O)(O)O)[C@@H](O)[C@H]1O)[C@H]1CCc2ccccc21` [Example 18, (((((2R,3S,4R,5R)-5-(5-chloro-7-(((S)-2,3-dihydro-1H-inden-1-yl)(methyl)amino)-3H-[1,2,3]triazolo[4,5-d]pyrimidin-3-yl)-3,4-dihydroxytetrahydrofuran-2-yl)methoxy)(hydroxy)phosphoryl)methyl) phosphonic acid]: the concentration for half-maximal inhibition (IC50) is less than 100 nM.
With `CN(c1nc(Cl)nc2c1cnn2[C@@H]1O[C@H](COP(=O)(O)CP(=O)(O)O)[C@@H](O)[C@H]1O)[C@@H]1CCc2ccccc21` [Example 38, (((((2R,3S,4R,5R)-5-(6-chloro-4-(((R)-2,3-dihydro-1H-inden-1-yl)(methyl)amino)-1H-pyrazolo[3,4-d]pyrimidin-1-yl)-3,4-dihydroxytetrahydrofuran-2-yl)methoxy)(hydroxy)phosphoryl)methyl)phosphonic acid], the IC50 was less than 100 nM.
Consider `COP(=O)(CP(=O)(O)O)OC[C@H]1O[C@@H](n2nnc3c(NCc4ccccc4Cl)nc(Cl)nc32)[C@H](O)[C@@H]1O` (stereo partly drawn) [Example 26, (((((2R,3S,4R,5R)-5-(5-chloro-7-((2-chlorobenzyl)amino)-3H-[1,2,3]triazolo[4,5-d]pyrimidin-3-yl)-3,4-dihydroxytetrahydrofuran-2-yl)methoxy)(methoxy)phosphoryl)methyl) phosphonic acid], for which the IC50 fell in the range of 100 to 1000 nM.
Same read-out and setting: with `C[C@@H](Nc1nc(Cl)nc2c1cnn2[C@@H]1O[C@H](COP(=O)(O)CP(=O)(O)O)[C@@H](O)[C@H]1O)c1ccccc1Cl` [Example 45, (((((2R,3S,4R,5R)-5-(6-chloro-4-(((R)-1-(2-chlorophenyl)ethyl)amino)-1H-pyrazolo[3,4-d]pyrimidin-1-yl)-3,4-dihydroxytetrahydrofuran-2-yl)methoxy)(hydroxy)phosphoryl)methyl) phosphonic acid] the figure was 100 to 1000 nM; with `C[C@H](Nc1nc(Cl)nc2c1cnn2[C@@H]1O[C@H](COP(=O)(O)CP(=O)(O)O)[C@@H](O)[C@H]1O)c1ccccc1Cl` [Example 46, (((((2R,3S,4R,5R)-5-(6-chloro-4-(((S)-1-(2-chlorophenyl)ethyl)amino)-1H-pyrazolo[3,4-d]pyrimidin-1-yl)-3,4-dihydroxytetrahydrofuran-2-yl)methoxy)(hydroxy)phosphoryl)methyl) phosphonic acid], greater than 1000 nM.
Same read-out and setting: with `CN(Cc1ccccc1)c1nc(Cl)nc2c1cnn2[C@@H]1O[C@H](COP(=O)(O)CP(=O)(O)O)C[C@H]1O` [Example 47, (((((2S,4R,5R)-5-(4-(benzyl(methyl)amino)-6-chloro-1H-pyrazolo[3,4-d]pyrimidin-1-yl)-4-hydroxytetrahydrofuran-2-yl)methoxy)(hydroxy)phosphoryl)methyl) phosphonic acid] the figure was less than 100 nM; with `O=P(O)(O)CP(=O)(O)OC[C@H]1O[C@@H](n2nnc3c(N[C@H]4CCc5ccccc54)nc(Cl)nc32)[C@H](O)[C@@H]1O` [Example 20, (((((2R,3S,4R,5R)-5-(5-chloro-7-(((S)-2,3-dihydro-1H-inden-1-yl)amino)-3H-[1,2,3]triazolo[4,5-d]pyrimidin-3-yl)-3,4-dihydroxytetrahydrofuran-2-yl)methoxy)(hydroxy)phosphoryl)methyl) phosphonic acid], less than 100 nM; with `O=P(O)(O)CP(=O)(O)OC[C@H]1O[C@@H](n2nnc3c(NC[C@H]4CCOC4)nc(Cl)nc32)[C@H](O)[C@@H]1O` [Example 3, (((((2R,3S,4R,5R)-5-(5-chloro-7-((((R)-tetrahydrofuran-3-yl)methyl)amino)-3H-[1,2,3]triazolo[4,5-d]pyrimidin-3-yl)-3,4-dihydroxytetrahydrofuran-2-yl)methoxy)(hydroxy)phosphoryl)methyl) phosphonic acid], 100 to 1000 nM.
With `Nc1nc(Cl)nc2c1nnn2[C@@H]1O[C@H](COP(=O)(O)CP(=O)(O)O)[C@@H](O)[C@H]1O` [Example 4, (((((2R,3S,4R,5R)-5-(7-amino-5-chloro-3H-[1,2,3]triazolo[4,5-d]pyrimidin-3-yl)-3,4-dihydroxytetrahydrofuran-2-yl)methoxy)(hydroxy)phosphoryl)methyl) phosphonic acid], the IC50 is greater than 1000 nM.
For `O=P(O)(O)CP(=O)(O)OC[C@H]1O[C@@H](n2nnc3c(NCc4ccccc4)nc(Cl)nc32)[C@H](O)[C@@H]1O` [Example 1, (((((2R,3S,4R,5R)-5-(7-(Benzylamino)-5-chloro-3H-[1,2,3]triazolo[4,5-d]pyrimidin-3-yl)-3,4-dihydroxytetrahydrofuran-2-yl)methoxy)(hydroxy)phosphoryl)methyl)phosphonic acid], the concentration for half-maximal inhibition (IC50) fell in the range of 100 to 1000 nM.

As a reminder, the IC50 is the concentration that inhibits the measured activity by half.
